In series [1] the test system is A10 VSM cells. As to the kind of experiment: [3H]thymidine incorporation (DNA synthesis) in A10 VSM cells. It counts as cell-based, rat.
For series [2], the system named is p21^Waf1/Cip1. Nature of the series: p21 protein level by Western blot in A10 VSM cells. It counts as cell-based, rat. As to the method: Western blots: Cells were grown to confluence in 6 cm culture dishes and serum deprived. After transfection and or treatment with appropriate agonist, the cells were washed with phosphate-buffered saline and lysed in lysis buffer and the supernatant was Western blotted as described (Weiss et al., 1998 Am. J. Physiol., 274, p. C1521-C1529).
To determine whether antisense transfection with p21^Waf1/Cip1 antisense oligonucleotides indeed decreases p21^Waf1/Cip1 protein levels, p21^Waf1/Cip1 levels after antisense transfection were examined employing the fact that PMA is a potent inducer of p21^Waf1/Cip1 (Huang et al., 1995 Proc. Natl. Acad. Sci. U.S.A., 92, p. 4793-4797; Michieli et al., 1994 Cancer Res., 54, p. 3391-3395). Since p21^Waf1/Cip1 protein levels were induced in VSM cells between 2 and 6 hours after PMA stimulation (FIG. 4), the p21^Waf1/Cip1 levels in transfected cells after similar times of PMA stimulation were examined. […] There was no effect of the p21^Waf1/Cip1 sense (SEQ. ID NO.:2) control oligodeoxynucleotide on cellular p21^Waf1/Cip1 levels (compare with FIG. 4).
To check for specificity of protein inhibition by the antisense p21^Waf1/Cip1 oligodeoxynucleotide (SEQ. ID NO.: 1), protein levels of p21^Waf1/Cip1 and p27^Kip1 after transfection with antisense p21^Waf1/Cip1 oligodeoxynucleotide (SEQ. ID NO.:1) were examined. In these experiments the ability of antisense oligodeoxynucleotides (SEQ. ID NO.:1) to inhibit maximally stimulated CKI expression (see FIG. 4) was assessed. The cells were stimulated with PMA for 4 hours at various times after overnight serum starvation.
(§1) Western blots: Cells were grown to confluence in 6 cm culture dishes and serum deprived. After transfection and or treatment with appropriate agonist, conditioned medium was removed and saved and the cells were washed with phosphate-buffered saline and lysed in lysis buffer. Both supernatant and cell lysate were normalized to the lysate protein concentrations and Western blotted as described (Weiss R H, et al. Am J Physiol 274:C1521-C1529, 1998).
To confirm that p21 levels were increased after exposure to ionizing radiation, and that the oligonucleotides inhibit this phenomenon in A10 cells, p21 protein levels under these conditions were assayed. […] With the exception of the initial decrease in p21 levels at ½ and 1 hours, the results with the control oligonucleotides were similar to that observed in non-transfected cells.
Adriamycin is a prototypical DNA damaging agent used in the treatment of a variety of cancers. The predominantly G2 arrest seen after Adriamycin treatment has been associated with an increase in p21 levels in some cell lines (Siu W Y, et al. FEBS Lett 461:299-305, 1999). In order to determine whether similar augmentation of p21 is seen in A10 VSM cells and whether the antisense p21 oligonucleotide is inhibiting this response, these cells were treated with Adriamycin either with or without first transfecting the cells with the antisense and control oligonucleotides. Confluent VSM cells were transfected with antisense oligonucleotide to p21 or random sequence control oligonucleotide as described above. After 24 hours, the cells were exposed to Adriamycin (500 ng/ml), lysed at the indicated times after exposure, and Western blotted with p21 antibody.
Using a random sequence phosphorothioate oligodeoxynucleotide (SEQ. ID NO.:3) as a control, the effect of the antisense oligodeoxynucleotide to p21 (400 nM) on p21 and α-actin protein expression in A10 VSM cells, was examined. The lysates, normalized for protein content, were Western blotted with either p21 or α-actin antibody.
Background: Immunoblotting shows a protein as a band on a membrane.

The subject of series [3] is p21^Waf1/Cip1. Nature of the series: PMA-induced p21 level by Western blot in A431 cells. It counts as cell-based, human. Particulars: 200 nM oligodeoxynucleotide, PMA 100 ng/ml up to 6 hours. As for the experimental part:
Western blots: Cells were grown to confluence in 6 cm culture dishes and serum deprived. After transfection and or treatment with appropriate agonist, the cells were washed with phosphate-buffered saline and lysed in lysis buffer and the supernatant was Western blotted as described (Weiss and Nuccitelli, 1992 J. Biol. Chem., 267, p. 5608-5613).
PMA is a potent inducer of p21^Waf1/Cip1 in a variety of different cell lines (Huang et al., 1995 Proc. Natl. Acad. Sci. US.A., 92, p. 4793-4797; Michieli et al., 1994 Cancer Res., 54, p. 3391-3395) and was employed to examine p21^Waf1/Cip1 levels after antisense transfection and confirm efficacy of translation to attenuate p21^Waf1/Cip1 levels. A431 cells were transfected with 200 nM antisense p21^Waf1/Cip1 (SEQ. ID NO.:1) or sense p21^Waf1/Cip1 oligodeoxynucleotide (SEQ. ID NO.:2). After overnight incubation in serum-free medium, the cells were stimulated with PMA (100 ng/ml) for the times indicated, lysed, and the lysates were Western blotted with p21^Waf1/Cip1 or α-actin antibody.

In series [4] the test system is caspase-3. As to the kind of experiment: Caspase-3 activation (cleavage product) by Western blot in VSM cells. Particulars: Adriamycin experiment (FIG. 19b). The class given is cell-based, rat. As for the experimental part: FIGS. 19A and B depict how Caspase-3 is activated by antisense oligonucleotide to p21 but not early after radiation or Adriamycin, as described in Example III, infra. Confluent VSM cells were transfected with oligonucleotide in the concentration indicated, left in serum-containing media overnight, and exposed to (A) ionizing radiation (12 Gy) or (B) Adriamycin where indicated. 4 hours later, activation of caspase-3 was assessed by Western blotting. The arrowhead indicates the cleavage product of caspase-3 signifying its processing as an early step in apoptosis. Wortmannin (wort) is a positive control for apoptosis. […] The experiment shown is representative of two separate experiments.
as §1
In order to determine whether the potentiation of ionizing radiation and Adriamycin induced DNA synthesis inhibition by p21 antisense oligonucleotides is accompanied by apoptosis, caspase-3 activation in response to ionizing radiation was examined. Caspase-3 is an effector caspase whose activation (leading to apoptosis) results in a 20 kD cleavage product which can be assessed by Western blotting (McCarthy N J, Evan G I. Curr Top Dev Biol 36:259-278, 1998). This process is an early event in a cascade of reactions which ultimately leads to apoptosis, as is evident by the fact that inactivation of caspase-3 dramatically reduces apoptosis in several cell lines (Woo M, et al. Genes Dev 12:806-819, 1998).
VSM cells were transfected with antisense or control oligonucleotides overnight and then stimulated with ionizing radiation.

For series [5], the system named is A431 cells. Nature of the series: [3H]thymidine incorporation (DNA synthesis) in A431 cells. The class given is cell-based, human. The conditions noted are these: PMA 100 ng/ml. As for the experimental part: FIG. 9A-D are bar graphs showing Antisense p21^Waf1/Cip1 oligodeoxynucleotide has no significant effect DNA synthesis in PMA-inhibitable A431 cells, as described in Example II, infra. […] A431 cells were placed in serum-free medium overnight and then stimulated with (A) PDGF-BB (30 ng/ml), (B) 10% serum-containing medium, or (C) PDGF-BB or PMA (100 ng/ml) for another 8 hours before [^3H]-thymidine was added for overnight incubation. (D) A10 VSM cells were transfected with sense and antisense p21^Waf1/Cip1 oligonucleotides as above and treated similarly to (B). DNA synthesis was assessed by [^3H]-thymidine incorporation and is expressed as mean ±s.e.m. of three wells per data point. The absolute counts differ between experiments due to different confluency of the cells. The experiments shown are representative of two separate experiments.
Cell culture and DNA synthesis: Cultures of A10 and A431 cells were obtained from American Type Culture Collection (Rockville Md), were maintained as described (Weiss et al. 1998, Am. J. Physiol. 274, C1521-C1529), and were used between passages 15 and 24 or 25 and 35, respectively. The cells were growth-arrested by placing them in serum-free quiescence medium, exposed to growth factors as indicated, and [^3H]thymidine incorporation assessed as previously described (Weiss and Nuccitelli, 1992, J. Biol. Chem. 267, 5608-5613).
This A431 data is in contrast with that obtained in a variety of VSM cell lines, where cell growth was inhibited by similar oligodeoxynucleotide concentrations in cell stimulated with both PDGF-BB and serum (FIG. 9d).
On the technique in general: Uptake of a labelled nucleoside into DNA is a usual measure of proliferation.

Series [6] has as its system laminin. As to the kind of experiment: Laminin production and secretion (immunoblot of lysate and conditioned media). The class given is cell-based, rat. Particulars: control oligodeoxynucleotide transfected cells, TGF-β higher doses. As for the experimental part: Western blots: Cells were grown to confluence in 6 cm culture dishes and serum deprived. After transfection and/or treatment with appropriate agonist, conditioned medium was removed and saved and the cells were washed with phosphate-buffered saline and lysed in lysis buffer. Both supernatant and cell lysate were normalized to the lysate protein concentrations and Western blotted as described (Weiss, R. H.; et al. Am. J. Physiol. 274: C1521-C1529; 1998).
The p21 influences on matrix protein secretion in VSM cells were determined. Levels of the matrix proteins laminin and fibronectin were examined in both TGF-β stimulated lysate and conditioned media of cells in which p21 expression had been attenuated. The cells were transfected with either antisense p21 (SEQ. ID NO.:1) (400 nM), or random sequence control (SEQ. ID NO.:3) (400 nM) oligodeoxynucleotide, and then stimulated with TGF-β at for 0.1 to 10 ng/ml for 4 hours. Conditioned media and cell lysate were collected, and both medium and lysate volumes were normalized for the protein content in total cell lysate to exclude any skewing of the data due to cell proliferation. The proteins were electrophoresed and immunoblotted with either fibronectin (after immunoprecipitation to eliminate extraneous bands which appeared in the absence of this procedure) or laminin antibody.

The test system of series [7] is fibronectin. Nature of the series: Fibronectin production and secretion (immunoprecipitation/immunoblot). It counts as cell-based, rat. Particulars: VSM cells, TGF-β, maximal level in lysate at higher doses. As to the method: Immunoprecipitations: VSM cells were grown to confluence. After incubation under appropriate conditions, the cells were washed with ice-cold phosphate-buffered saline and immediately lysed in lysis buffer (20 mM Tris [pH7.5], 150 mM NaCl, 1 mM EDTA, 1 mM EGTA, 1% Triton X-100, 2.5 mM sodium pyrophosphate, 1 mM β-glycerolphosphate, 1 mM Na3VO4, 1 μg/ml Leupeptin, 1 mM PMSF) at 4° C. The cells were scraped off with a rubber spatula and the insoluble material removed by centrifuging at 10,000× g for 10 min at 4° C. Protein concentration was determined by A595, and lysates containing equal amounts of protein were incubated with […] anti-fibronectin antibody at 4° C. overnight. Protein A-Sepharose beads were added and the resulting mixture was incubated for an additional 2 hours at 4° C. The beads were centrifuged in a microfuge for 20 sec, and the pellet was washed 3 times with cold lysis buffer. The supernatant was decanted, gel loading buffer was added to the precipitate, and the solution was boiled for 5 min, and centrifuged. The supernatant was electrophoresed on a 7.5% SDS-polyacrylamide gel with equal volumes of sample per lane. The proteins were electrophoretically transferred to nitrocellulose and probed with fibronectin antibody.
The p21 influences on matrix protein secretion in VSM cells were determined. […]

As to “5′-ATGTCCGATCCTGGTGATGTC-3′ (sense ATGTCCGATCCTGGTGATGTC; DNA, backbone not given here) [Sense p21Waf1/Cip1 control oligodeoxynucleotide, reference compound]”, in series [1] (A10 VSM cells, increasing oligodeoxynucleotide concentration up to 200 nM), the “PDGF-stimulated DNA synthesis, dose/response” value is given as “no effect”. For the same compound, the “PMA-induced p21^Waf1/Cip1 levels” value in series [2] (A10 VSM cells, PMA stimulation up to 6 hours after transfection) is “no effect”; in series [3] it was “no effect”.
For the compound `COc1cccc2c1C(=O)c1c(O)c3c(c(O)c1C2=O)C[C@@](O)(C(=O)CO)C[C@@H]3O[C@H]1C[C@H](N)[C@H](O)[C@H](C)O1` [Adriamycin, Adriamycin (doxorubicin), reference compound], the “growth inhibitory effect of Adriamycin (DNA synthesis)” value in series [1] (control oligonucleotide transfected VSM cells, 500 to 2000 ng/ml for 2 hours) is “plateaued”. In addition, the “p21 levels after Adriamycin exposure” value in series [2] (VSM cells, Adriamycin 500 ng/ml) was “increased”. Also, the caspase-3 activation entry in series [4] is “little effect”.
For the compound `CCCCCCCCCCCCCC(=O)O[C@@H]1[C@@H](C)[C@@]2(O)[C@@H](C=C(CO)C[C@]3(O)C(=O)C(C)=C[C@@H]23)[C@@H]2C(C)(C)[C@]12OC(C)=O` [PMA, reference compound], in series [2] (non-transfected VSM cells, PMA 100 ng/ml, between 2 and 6 hours), the “p21^Waf1/Cip1 protein levels after PMA stimulation” value is “induced”. Also, the “growth of A431 cells with PMA” value in series [5] is given as “significant growth inhibition”.
As to “TGF-β: growth factor TGF-β1 obtained from Upstate Biotechnology”, the “DNA synthesis in serum-starved cells” value in series [1] (A10 VSM cells, TGF-β 0.1 to 10 ng/ml for 24 hours) is on record as “significantly reduced”. Besides, the “inhibitory effect of TGF-β on DNA synthesis in transfected cells” value in series [1] (antisense or control transfected A10 VSM cells, 10% serum, TGF-β 10 ng/ml) is given as “still present”. Besides, the laminin secretion result in series [6] is on record as “decrease laminin secretion at higher doses”. In series [7], the fibronectin production result was “induced fibronectin production”.
